Assay [1] concerns the target T1, human 5HT1A receptor (Homo sapiens, UniProt P08908).
T1 construct: expressed in transfected cells; host or cells: CHO cells
T1 sequence (P08908 1-422): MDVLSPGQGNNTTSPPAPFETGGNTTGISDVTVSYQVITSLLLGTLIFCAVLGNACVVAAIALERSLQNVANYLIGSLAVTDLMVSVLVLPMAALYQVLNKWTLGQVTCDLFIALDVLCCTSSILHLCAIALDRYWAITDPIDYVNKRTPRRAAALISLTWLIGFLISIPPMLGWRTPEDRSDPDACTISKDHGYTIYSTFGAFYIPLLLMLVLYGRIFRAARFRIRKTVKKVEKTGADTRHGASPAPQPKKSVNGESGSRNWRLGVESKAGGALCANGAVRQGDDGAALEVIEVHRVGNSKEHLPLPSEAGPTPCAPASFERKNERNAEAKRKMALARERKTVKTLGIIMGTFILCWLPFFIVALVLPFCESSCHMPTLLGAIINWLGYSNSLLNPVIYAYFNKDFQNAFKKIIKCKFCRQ
In words: 5-HT1A Receptor Intrinsic Activity Assay (forskolin-stimulated cAMP in transfected CHO cells, RIA). In kind it is cell-based. To be noted: for Emax: Emax = 0 % means no agonist activity; for IC50: antagonist mode: reversal of agonist-induced activity, antagonist preincubated 20 minutes before agonist and forskolin. As for the experimental part:
5-HT1A Receptor Intrinsic Activity Assay
The intrinsic activity of compounds of the present invention was established by testing the claimed compounds ability to reverse the stimulation of cyclic adenosinemonophosphate (cAMP) in CHO cells stably transfected with the human 5-HT1A receptor.
Stably transfected CHO cells were grown in DMEM containing 10% heat inactivated FBS and non-essential amino acids. The cells arc plated at a density of ? x10^6 cells per well in a 24 well plate and incubated for 2 days in a CO2 incubator. On the second day, the media is replaced with 0.5 mL treatment buffer (DMEM + 25 mM HEPES, 5 mM theophylline, 10 µM pargyline) and incubated for 10 minutes at 37°C. Wells are treated with forskolin (1 µM final concentration) followed immediately by the test compound (0.1 and 1 µM for initial screen) and incubated for an additional 10 minutes at 37°C. The reaction is terminated by removal of the media and addition of 0.5 mL ice cold assay buffer (supplied in the RIA kit). Plates are stored at -20°C prior to assessment of cAMP formation by RIA. EC50 values are determined for the active test compounds. Compounds shown to have no agonist activities (Emax = 0 %) are further analyzed for their ability to reverse agonist-induced activity. In separate experiments, 6 concentrations of antagonist are preincubated for 20 minutes prior to the addition of agonist and forskolin. Cells are harvested as described above. The CAMP kit is supplied by Amersham and the RIA is performed as per kit instructions, and calculations of IC50 performed by GraphPad Prism.

Assay [2] has as its target T1, human 5HT1A receptor. The assay can be described thus: 5-HT1A Receptor Binding Assay ([3H] 8-OH-DPAT displacement in transfected CHO cells). The protocol:
5-HT1A Receptor Binding Assay
Stably transfected CHO cells are grown in DMEM containing 10% heat inactivated FBS and non-essential amino acids. Cells are scraped off the plate, transferred to centrifuge tubes, and washed twice by centrifugation (2000 rpm for 10 min., 4"C) in buffer (50 mM Tris pH 7.5). The resulting pellets are aliquoted and placed at -80°C. On the day of assay, the cells are thawed on ice and resuspended in buffer. The binding assay is performed in a 96 well microtiter plate in a total volume of 250 µL. […] Following a 30 minute incubation at room temperature, the reaction is terminated by the addition of ice cold buffer and rapid filtration through a GF/B filter presoaked for 30 minutes in 0.5% PEI.

Setting [3] is: agonist mode: reversal of forskolin (1 µM) stimulated cAMP, CHO cells.
The mark [4] stands for this setting: displacement of [3H] 8-OH-DPAT (1.5 nM), CHO cells stably transfected with human 5HT1A receptor.

Where two headings read alike, the source gives them in different places.

In the case of `COc1ccccc1C1=CCN(C[C@@H](Cc2ccccc2)NC(=O)C2(C)CCCCC2)CC1` [Example 4, (R)-1-Methyl-cyclohexanecarboxylic acid{1-benzyl-2-[4-(2-methoxy-phenyl)-3,6-dihydro-2H-pyridin-1-yl]-ethyl}-amide], the Emax on human 5HT1A receptor [1] (setting [3]) was 84%.
`COc1ccc(F)cc1C1CCN(C[C@@H](Cc2ccccc2)N(C)C(=O)C2(C)CCCCC2)CC1` [Example 1, 1-Methyl-cyclohexanecarboxylic acid {(1R)-1-benzyl-2-[4-(5-fluoro-2-methoxy-phenyl)-piperidine-1-yl]-ethyl}-methyl-amide]: on human 5HT1A receptor [1] (setting [3]), the Emax came to 0%. The IC50 on human 5HT1A receptor [1] is 11.1 nM. Besides, affinity on human 5HT1A receptor [2] (setting [4]) was put at a Ki of 10.7 nM.
Regarding `COc1ccccc1C1=CCN(C[C@@H](Cc2ccccc2)NC(=O)C2CCCCC2)CC1` [Example 3, (R)-Cyclohexanecarboxylic acid{1-benzyl-2-[4-(2-methoxy-phenyl)-3,6-dihydro-2H-pyridin-1-yl]-ethyl}-amide], on human 5HT1A receptor [1] (setting [3]), the Emax is 84%.
`COc1ccccc1C1CCN(C[C@@H](Cc2ccccc2)NC(=O)C2(C)CCCCC2)CC1` [Example 5, (R)-1-Methyl-cyclohexanecarboxylic acid {1-benzyl-2-[4-(2-methoxy-phenyl)-piperidin-1-yl]-ethyl}-amide]: the Emax at human 5HT1A receptor [1] (setting [3]) is 0%. Moreover, the IC50 on human 5HT1A receptor [1] worked out at 0.29 nM. This compound had an inhibition constant Ki at human 5HT1A receptor [2] (setting [4]) of 0.24 nM.
For `COc1ccc(F)cc1C1=CCN(C[C@@H](Cc2ccccc2)N(C)C(=O)C2(C)CCCCC2)CC1` [Example 2, 1-Methyl-cyclohexanecarboxylic acid {(1R)-1-benzyl-2-[4-(5-fluoro-2-methoxy-phenyl)-1,2,5,6-tetrahydro-4H-pyridin-1-yl]-ethyl}-methyl-amide], the Emax on human 5HT1A receptor [1] (setting [3]) turned out to be 0%. The compound also had a Ki on human 5HT1A receptor [2] of 4.9 nM.
Turning to `COc1ccccc1C1CCN(C[C@@H](Cc2ccccc2)NC(=O)C2CCCCC2)CC1` [Example 6, (R)-Cyclohexanecarboxylic acid {1-benzyl-2-[4-(2-methoxy-phenyl)-piperidin-1-yl]-ethyl}-amide], on human 5HT1A receptor [1] (setting [3]), the EC50 worked out at 16.9 nM and the Emax was found to be 92%. Besides, the affinity at human 5HT1A receptor [2] (setting [4]) corresponds to a Ki of 0.23 nM.

The values above are taken from patent EP1140830B1, “ARYLPIPERIDINE AND ARYL-1,2,5,6-TETRAHYDROPYRIDINE AMIDE DERIVATIVES HAVING 5HT1A RECEPTOR ACTIVITY” (Wyeth, priority 1998, dated 2000).
